Test results: US12643906B2, “Fused aza-heterocyclic amide compound and use thereof” (CSPC ZHONGQI PHARMACEUTICAL TECHNOLOGY (SHIJIAZHUANG) CO., …, priority 2020, dated 2026)
Where two headings read alike, the source gives them in different places. Each block holds one compound with its values, some of them ahead of it.

Key:
[1] = system: Ba/F3 LMNA-NTRK1-G595R model; settings: gavage
Experimental: (§1) The cells in the logarithmic growth phase were collected and re-suspending in serum-free culture medium to make the cell concentration at […] cells/mL. The cell suspension was added with equal volume of Matrigel to make the final cell concentration at 3×10^7-5×10^7 cells/mL. The animal model was established by subcutaneously inoculating 0.1 mL of tumor cell suspension in the axilla of the forelimb of NuNu mice (female, 4-6 weeks, Beijing Vital River Laboratory Animal Technology Co., Ltd.) in an amount of 3×10^6-5×10^6 cells/mouse.
(§2) The maximum and the minimum tumor diameters of the xenografts in nude mice were measured using a vernier caliper, and the tumor volume (TV) was calculated according to the formula: V=½×a×b^2, where a and b represent the maximum and minimum diameters of the tumor mass, respectively. Nude mice with appropriate tumor volume were selected and the mice were evenly divided into 7 groups of 6 mice (100-200 mm^3) by tumor volume using a random number method.
(§3) Tumor diameters were measured twice weekly and tumor volume was calculated. […] (where Ti represents the mean tumor volume of a certain administration group on a certain day; TO represents the mean tumor volume of the administration group at the start of administration, Vi represents the mean tumor volume of the vehicle control group on a certain day (same day as Ti) and V0 represents the mean tumor volume of the vehicle control group at the start of administration); • Tumor inhibition rate: at the end of the test, the animals were executed by removing the cervical vertebrae.

[2] = system: Ba/F3 LMNA-NTRK1-G667C model; settings: 100 mg/kg, gavage
Experimental: as §1, §2, §3

TRKC = target: T1, TRKC (Homo sapiens, UniProt Q16288); experiment: HTRF kinase inhibition assay, TRKC; type: biochemical
T1 construct: purchased Bioduro
T1 sequence (Q16288 32-839): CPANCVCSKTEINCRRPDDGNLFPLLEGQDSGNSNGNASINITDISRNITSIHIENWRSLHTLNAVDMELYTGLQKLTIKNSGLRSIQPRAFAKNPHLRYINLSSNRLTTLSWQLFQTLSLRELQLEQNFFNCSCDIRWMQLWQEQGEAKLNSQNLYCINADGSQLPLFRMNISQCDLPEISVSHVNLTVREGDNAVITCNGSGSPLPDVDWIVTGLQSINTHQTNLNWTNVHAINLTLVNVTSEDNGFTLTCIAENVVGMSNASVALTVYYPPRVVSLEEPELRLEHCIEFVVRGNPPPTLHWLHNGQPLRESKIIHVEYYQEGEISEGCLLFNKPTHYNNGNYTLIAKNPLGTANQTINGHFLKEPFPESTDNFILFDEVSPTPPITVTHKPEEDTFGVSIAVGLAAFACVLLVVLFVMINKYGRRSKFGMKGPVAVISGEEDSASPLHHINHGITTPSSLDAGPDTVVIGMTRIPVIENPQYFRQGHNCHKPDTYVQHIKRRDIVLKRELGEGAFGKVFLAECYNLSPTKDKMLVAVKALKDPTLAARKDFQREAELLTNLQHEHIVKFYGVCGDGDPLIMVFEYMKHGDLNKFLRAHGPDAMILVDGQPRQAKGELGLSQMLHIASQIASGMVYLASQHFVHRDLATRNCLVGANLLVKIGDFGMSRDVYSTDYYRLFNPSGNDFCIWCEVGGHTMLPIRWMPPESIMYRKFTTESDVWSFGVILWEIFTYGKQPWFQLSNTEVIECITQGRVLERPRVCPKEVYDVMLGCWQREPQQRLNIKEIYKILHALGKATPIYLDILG
Experimental: (§4) The compound to be tested with a certain concentration gradient and an enzyme solution were successively added into a plate (kinase buffer (1× kinase buffer (Cisbio, Cat #62EZBFDD), pH 7.5; 5 mM MgCl2, 1 mM DTT) was added into negative control wells), and the compound plate was centrifuged at 1000 rpm for 30 seconds. The plate was sealed and incubated in a Constant Temperature Incubator at 25° C. for 30 min. A substrate solution containing TK-Sub-biotin (Cisbio, Cat #61TKOBL) and ATP (Sigma, Cat #R0441) was prepared, the substrate solution was added into a 384-well plate, and the plate was centrifuged at 1000 rpm for 30 seconds. The plate was sealed and incubated in a Constant Temperature Incubator at 25° C. for 60 min.
(§5) TK antibody and XL665 were diluted, mixed and added into the assay plate, and the plate was centrifuged at 1000 rpm for 30 seconds. The plate was sealed and incubated in a Constant Temperature incubator Incubator at 25° C. for 60 min. The assay plate was placed on an Envision reader for reading. (HTRF 665/615 ratio: signal value at 665 nm/signal value at 615 nm) Inhibition=(rationegative control well−ratiocompound well)/(rationegative control well−ratioenzyme-free control well)×100% 1.3 Data Analysis and Curve Fitting
(§6) Data were fitted in XLFit excel add-in version 5.4.0.8 to obtain IC50 values.

Ba/F3 ETV6-NTRK3-G696A = target: T2, Ba/F3 ETV6-NTRK3-G696A (Homo sapiens, UniProt Q16288, G696A, cells depend on it); experiment: In vitro cell proliferation inhibition (MTT); type: cell-based, murine; settings: 72 h, read-out: IC50 Ba/F3 ETV6-NTRK3-G696A
T2 construct: fused on or other part: P41212 (Transcription factor ETV6)
T2 sequence (Q16288 whole entry G696A, the tested form may be a part): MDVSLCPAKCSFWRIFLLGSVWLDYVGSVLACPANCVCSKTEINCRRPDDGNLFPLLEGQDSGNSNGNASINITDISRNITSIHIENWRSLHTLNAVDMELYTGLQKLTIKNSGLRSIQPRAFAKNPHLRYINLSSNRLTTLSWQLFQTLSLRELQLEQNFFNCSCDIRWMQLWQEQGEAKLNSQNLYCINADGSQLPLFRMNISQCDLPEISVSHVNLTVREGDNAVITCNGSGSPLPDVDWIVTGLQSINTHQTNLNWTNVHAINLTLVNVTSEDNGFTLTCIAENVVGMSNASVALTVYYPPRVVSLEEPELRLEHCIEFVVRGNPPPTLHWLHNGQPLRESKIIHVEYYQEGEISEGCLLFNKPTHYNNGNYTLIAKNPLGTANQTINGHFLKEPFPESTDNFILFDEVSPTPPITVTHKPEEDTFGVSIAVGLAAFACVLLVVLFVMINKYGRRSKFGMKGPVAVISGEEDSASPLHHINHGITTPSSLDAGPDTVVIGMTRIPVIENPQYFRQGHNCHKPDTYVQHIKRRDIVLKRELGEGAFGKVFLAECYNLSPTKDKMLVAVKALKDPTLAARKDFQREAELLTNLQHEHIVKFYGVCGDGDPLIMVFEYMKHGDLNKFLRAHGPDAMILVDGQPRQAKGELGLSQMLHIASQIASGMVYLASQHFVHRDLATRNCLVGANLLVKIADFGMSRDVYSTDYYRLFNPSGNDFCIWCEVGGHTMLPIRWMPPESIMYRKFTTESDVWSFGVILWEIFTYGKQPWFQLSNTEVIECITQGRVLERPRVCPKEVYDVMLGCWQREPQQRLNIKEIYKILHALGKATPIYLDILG
Experimental: • Source of 6 kinds of cell lines for the test: KYinno Biotechnology (Beijing) Co., Ltd. • Cell type: murine B cells • Culture medium: RPMI-1640+10% FB S 2. Test Method
(§7) Cells in the logarithmic growth phase were harvested and counted using a […]. The cell suspension with a certain density was pipetted uniformly and seeded into a 96-well plate with each well of 100 μL, and shaken to make the cells uniformly disperse into the wells. 100 μL of compound solution with certain concentration gradient was added into each well, and 3 duplicate wells were set for each concentration. The plate was cultured in a CO2 incubator at 37° C. for 72 h. 20 μL of MTT working solution (5 mg/mL) was added into each well, and the plate was placed at 37° C. for 4 h, and centrifuged at 1000 rpm for 5 min by a plate centrifuge. After 180 μL of culture medium was discarded, the plate was added with 150 μL of DMSO, and mixed well with a microplate shaker, the plate bottom was wiped, and optical density (OD) at 550 nm was detected with a microplate reader.

Ba/F3 LMNA-NTRK1-G667C = target: T3, Ba/F3 LMNA-NTRK1-G667C (Homo sapiens, UniProt P04629, G667C, cells depend on it); experiment: In vitro cell proliferation inhibition (MTT); type: cell-based, murine; settings: 72 h, read-out: IC50 Ba/F3 LMNA-NTRK1-G667C
T3 construct: fused on or other part: P02545 (Prelamin-A/C)
Experimental: as §7

Ba/F3 LMNA-NTRK1-G595R = target: T4, Ba/F3 LMNA-NTRK1-G595R (Homo sapiens, UniProt P04629, G595R, cells depend on it); experiment: In vitro cell proliferation inhibition (MTT); type: cell-based, murine; settings: 72 h, read-out: IC50 Ba/F3 LMNA-NTRK1-G595R
T4 construct: fused on or other part: P02545 (Prelamin-A/C)
Experimental: as §7

Ba/F3 ETV6-NTRK2 = target: T5, Ba/F3 ETV6-NTRK2 (Homo sapiens, UniProt Q16620); experiment: In vitro cell proliferation inhibition (MTT); type: cell-based, murine; settings: 72 h, read-out: IC50 Ba/F3 ETV6-NTRK2
T5 construct: fused on or other part: P41212 (Transcription factor ETV6)
T5 sequence (Q16620 whole entry, change not shown, the tested form may be a part): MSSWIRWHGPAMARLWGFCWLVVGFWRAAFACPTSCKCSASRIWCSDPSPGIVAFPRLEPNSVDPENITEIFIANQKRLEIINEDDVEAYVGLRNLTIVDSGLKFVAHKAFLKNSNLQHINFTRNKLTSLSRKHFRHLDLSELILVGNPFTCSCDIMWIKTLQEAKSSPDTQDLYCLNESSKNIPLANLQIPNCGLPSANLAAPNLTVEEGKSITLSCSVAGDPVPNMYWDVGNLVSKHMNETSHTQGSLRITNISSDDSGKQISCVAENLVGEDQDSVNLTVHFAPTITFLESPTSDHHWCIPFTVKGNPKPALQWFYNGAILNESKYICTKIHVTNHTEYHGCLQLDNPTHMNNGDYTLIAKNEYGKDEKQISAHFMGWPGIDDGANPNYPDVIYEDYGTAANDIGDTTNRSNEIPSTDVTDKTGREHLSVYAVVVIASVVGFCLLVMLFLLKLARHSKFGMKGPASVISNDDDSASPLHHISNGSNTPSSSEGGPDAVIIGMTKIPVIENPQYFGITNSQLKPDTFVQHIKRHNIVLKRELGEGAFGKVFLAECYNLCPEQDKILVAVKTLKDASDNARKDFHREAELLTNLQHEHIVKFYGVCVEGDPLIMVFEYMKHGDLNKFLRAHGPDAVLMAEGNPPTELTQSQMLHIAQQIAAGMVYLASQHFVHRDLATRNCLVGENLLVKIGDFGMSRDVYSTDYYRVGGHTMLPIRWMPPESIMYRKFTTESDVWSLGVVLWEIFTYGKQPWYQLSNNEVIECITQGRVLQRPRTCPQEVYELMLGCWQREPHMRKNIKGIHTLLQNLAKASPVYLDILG
Experimental: as §7

Ba/F3 LMNA-NTRK1 = target: T6, Ba/F3 LMNA-NTRK1 (Homo sapiens, UniProt P04629); experiment: In vitro cell proliferation inhibition (MTT); type: cell-based, murine; settings: 72 h, read-out: IC50 Ba/F3 LMNA-NTRK1
T6 construct: fused on or other part: P02545 (Prelamin-A/C)
T6 sequence (P04629 whole entry, change not shown, the tested form may be a part): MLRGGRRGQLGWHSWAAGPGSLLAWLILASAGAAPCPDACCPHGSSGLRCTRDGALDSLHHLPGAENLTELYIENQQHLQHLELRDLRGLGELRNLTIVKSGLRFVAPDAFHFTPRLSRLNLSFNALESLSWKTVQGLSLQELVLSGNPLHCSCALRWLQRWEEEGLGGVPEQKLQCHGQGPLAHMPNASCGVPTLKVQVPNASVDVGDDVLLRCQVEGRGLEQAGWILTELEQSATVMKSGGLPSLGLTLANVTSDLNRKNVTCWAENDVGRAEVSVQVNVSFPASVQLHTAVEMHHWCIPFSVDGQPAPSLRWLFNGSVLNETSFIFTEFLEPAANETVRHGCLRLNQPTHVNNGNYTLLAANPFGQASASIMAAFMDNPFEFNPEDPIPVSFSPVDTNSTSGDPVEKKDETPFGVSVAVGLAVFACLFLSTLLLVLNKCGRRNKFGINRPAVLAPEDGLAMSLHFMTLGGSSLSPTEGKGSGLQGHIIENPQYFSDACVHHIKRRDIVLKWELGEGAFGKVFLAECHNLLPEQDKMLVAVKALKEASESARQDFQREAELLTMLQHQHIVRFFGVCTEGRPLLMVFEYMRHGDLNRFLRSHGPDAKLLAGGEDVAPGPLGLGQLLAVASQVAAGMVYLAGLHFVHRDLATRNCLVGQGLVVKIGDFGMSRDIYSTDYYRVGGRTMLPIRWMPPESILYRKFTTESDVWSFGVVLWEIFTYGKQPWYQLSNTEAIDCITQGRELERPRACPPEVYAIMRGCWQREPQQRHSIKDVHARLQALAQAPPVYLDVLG
Experimental: as §7

Ba/F3 ETV6-NTRK3-G623R = target: T7, Ba/F3 ETV6-NTRK3-G623R (Homo sapiens, UniProt Q16288, G623R, cells depend on it); experiment: In vitro cell proliferation inhibition (MTT); type: cell-based, murine; settings: 72 h, read-out: IC50 Ba/F3 ETV6-NTRK3-G623R
T7 construct: fused on or other part: P41212 (Transcription factor ETV6)
T7 sequence (Q16288 whole entry G623R, the tested form may be a part): as the sequence (Q16288 whole entry G696A, the tested form may be a part) above, with G623R, A696G counted along it
Experimental: as §7

TRKC(G696A) = target: T8, TRKC(G696A) (Homo sapiens, UniProt Q16288, G696A); experiment: HTRF kinase inhibition assay, TRKC(G696A); type: biochemical
T8 construct: purchased Bioduro
Experimental: as §4
(§8) TK antibody and XL665 were diluted, mixed and added into the assay plate, and the plate was centrifuged at 1000 rpm for 30 seconds. The plate was sealed and incubated in a Constant Temperature incubator Incubator at 25° C. for 60 min. The assay plate was placed on an Envision reader for reading.
as §6

TRKB = target: T9, TRKB (Homo sapiens, UniProt Q16620); experiment: HTRF kinase inhibition assay, TRKB; type: biochemical
T9 construct: purchased Bioduro
Experimental: as §4, §8, §6

TRKA = target: T10, TRKA (Homo sapiens, UniProt P04629); experiment: HTRF kinase inhibition assay, TRKA; type: biochemical
T10 construct: purchased Bioduro
Experimental: as §4, §5, §6

ROS1 = target: T11, ROS1 (Homo sapiens, UniProt P08922); experiment: Kinase inhibition assay with fluorescein labeled peptide, ROS1; type: biochemical
T11 construct: purchased Carna 08-163
Experimental: (§9) Compounds were diluted to a certain concentration in DMSO with 4-fold gradients. The compound with a certain concentration, an enzyme solution and DMSO were added into a 384-well plate, and the plate was incubated at room temperature for 10 min. […] The plate was subjected to reading.

TRKA(G595R) = target: T12, TRKA(G595R) (Homo sapiens, UniProt P04629, G595R); experiment: HTRF kinase inhibition assay, TRKA(G595R); type: biochemical
T12 construct: purchased signalchem
Experimental: as §4, §5, §6

TRKC(G623R) = target: T13, TRKC(G623R) (Homo sapiens, UniProt Q16288, G623R); experiment: HTRF kinase inhibition assay, TRKC(G623R); type: biochemical
T13 construct: purchased Bioduro
Experimental: as §4, §5, §6

TRKA(G667C) = target: T14, TRKA(G667C) (Homo sapiens, UniProt P04629, G667C); experiment: HTRF kinase inhibition assay, TRKA(G667C); type: biochemical
T14 construct: purchased signalchem
Experimental: as §4, §5, §6

ALK = target: T15, ALK (Homo sapiens, UniProt Q9UM73); experiment: Kinase inhibition assay with fluorescein labeled peptide, ALK; type: biochemical
T15 construct: purchased Carna 08-105
T15 sequence (Q9UM73 1058-1620 limits assumed): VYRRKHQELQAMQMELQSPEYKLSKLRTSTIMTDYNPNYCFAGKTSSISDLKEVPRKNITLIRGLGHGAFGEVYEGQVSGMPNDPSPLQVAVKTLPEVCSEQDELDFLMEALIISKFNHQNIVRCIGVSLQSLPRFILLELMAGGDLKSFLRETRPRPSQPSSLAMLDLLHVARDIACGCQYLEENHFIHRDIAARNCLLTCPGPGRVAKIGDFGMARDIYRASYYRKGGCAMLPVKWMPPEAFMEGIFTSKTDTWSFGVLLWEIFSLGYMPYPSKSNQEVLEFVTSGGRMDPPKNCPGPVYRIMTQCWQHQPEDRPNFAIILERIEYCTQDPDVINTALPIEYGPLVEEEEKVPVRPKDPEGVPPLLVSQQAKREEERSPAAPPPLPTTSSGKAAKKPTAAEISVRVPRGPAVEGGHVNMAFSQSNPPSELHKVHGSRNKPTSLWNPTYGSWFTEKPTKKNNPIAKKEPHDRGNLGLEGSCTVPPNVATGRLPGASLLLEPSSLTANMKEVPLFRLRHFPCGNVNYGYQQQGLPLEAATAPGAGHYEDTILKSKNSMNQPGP
Experimental: as §9

[3] = system: tropomyosin receptor kinase; settings: 46 evaluable patients, phase I and phase II clinical trials; cited from earlier work

Rate of weight gain (%) ([1]; 50 mg/kg): 13.47% | Rate of weight gain (%) ([1]; 100 mg/kg): 4.36% | Rate of weight gain (%) [2]: 5.75% | IC50 (TRKC): 1.04 nM | GI50 (Ba/F3 ETV6-NTRK3-G696A): 0.693 nM | GI50 (Ba/F3 LMNA-NTRK1-G667C): 0.536 nM | GI50 (Ba/F3 LMNA-NTRK1-G595R): 0.095 nM | GI50 (Ba/F3 ETV6-NTRK2): 0.977 nM | GI50 (Ba/F3 LMNA-NTRK1): 0.526 nM | GI50 (Ba/F3 ETV6-NTRK3-G623R): 0.277 nM | IC50 (TRKC(G696A)): 0.558 nM | IC50 (TRKB): 1.15 nM | IC50 (TRKA): 0.322 nM | IC50 (ROS1): 0.4 nM | IC50 (TRKA(G595R)): < 0.169 nM | IC50 (TRKC(G623R)): 0.804 nM | IC50 (TRKA(G667C)): 0.57 nM | IC50 (ALK): 31 nM
Compound: O=C(Nc1ccc(C2CCN(C(=O)CO)CC2)cc1)c1cnn2ccc(N3C[C@@H](F)C[C@@H]3c3cc(F)ccc3F)nc12 [Compound 10, 5-((2R,4S)-2-(2,5-difluorophenyl)-4-fluoropyrrolidin-1-yl)-N-(4-(1-(2-hydroxyacetyl)piperidin-4-yl)phenyl)pyrazolo[1,5-a]pyrimidine-3-carboxamide]
Number of animals (Survival/total) ([1]; 50 mg/kg): (6/6) | TGI (%) ([1]; 50 mg/kg): 134.7% | Tumor volume (mm^3) ([1]; 50 mg/kg): 20.0 ± 12.6 mm^3 | Tumor weight ([1]; 50 mg/kg): 0.01 ± 0.01 g | Tumor weight inhibition rate (%) ([1]; 50 mg/kg): 98.09% | Number of animals (Survival/total) ([1]; 100 mg/kg): (6/6) | TGI (%) ([1]; 100 mg/kg): 132.5% | Tumor volume (mm^3) ([1]; 100 mg/kg): 25.8 ± 8.3 mm^3 | Tumor weight ([1]; 100 mg/kg): 0.02 ± 0.01 g | Tumor weight inhibition rate (%) ([1]; 100 mg/kg): 96.75% | Number of animals (Survival/total) [2]: (6/6) | TGI (%) [2]: 111.6% | Tumor volume (mm^3) [2]: 91.6 ± 19.5 mm^3 | Tumor weight [2]: 0.12 ± 0.02 g | Tumor weight inhibition rate (%) [2]: 77.80%

GI50 (Ba/F3 ETV6-NTRK3-G696A): 35.8 nM | GI50 (Ba/F3 ETV6-NTRK2): 15.1 nM | GI50 (Ba/F3 ETV6-NTRK3-G623R): 376 nM | IC50 (ALK): > 1000 nM
Compound: O=C(Nc1cnn2ccc(N3CCC[C@@H]3c3cc(F)ccc3F)nc12)N1CC[C@H](O)C1 [LOXO-101, Larotrectinib]
Overall Response Rate (ORR) [3]: 78%
